In ChEMBL document CHEMBL1667783 (Bioorg Med Chem Lett, 2011):

Assays:
Type in all cases: functional, cell-based
MCF7 = test: Cytotoxicity against human MCF7 cells after 48 hrs by MTT assay; conditions: MCF7, 48 h
A-431 = test: Cytotoxicity against human A431 cells after 48 hrs by MTT assay; conditions: A-431, 48 h
HeLa = test: Cytotoxicity against human HeLa cells after 48 hrs by MTT assay
A549 = test: Cytotoxicity against human A549 cells after 48 hrs by MTT assay; conditions: A549, 48 h
SK-OV-3 = test: Cytotoxicity against human SKOV3 cells after 48 hrs by MTT assay; conditions: SK-OV-3, 48 h
HEp-2 = test: Cytotoxicity against human Hep2 cells after 48 hrs by MTT assay; conditions: HEp-2, 48 h
HepG2 = test: Cytotoxicity against human HepG2 cells after 48 hrs by MTT assay; conditions: HepG2, 48 h
U-251 = test: Cytotoxicity against human U251 cells after 48 hrs by MTT assay; conditions: U-251, 48 h

| Compound | IC50 (MCF7) | IC50 (A-431) | IC50 (HeLa) | IC50 (A549) | IC50 (SK-OV-3) | IC50 (HEp-2) | IC50 (HepG2) | IC50 (U-251) |
| --- | --- | --- | --- | --- | --- | --- | --- | --- |
| COc1cc(/C=C/C(=O)/C=C(O)/C=C/c2ccc(-n3ccc4ccccc43)c(OC)c2)ccc1-n1ccc2ccccc21 | > 100 µM | > 100 µM | > 100 µM | > 100 µM | > 100 µM | > 100 µM | > 100 µM |  |
| COc1cc(/C=C/C(=O)/C=C(O)/C=C/c2ccc(-n3ccnc3)c(OC)c2)ccc1-n1ccnc1 | > 100 µM | 16.8 µM | 45.4 µM | > 100 µM | 66.9 µM | > 100 µM | 82.5 µM | 22 µM |
| COc1cc(/C=C/C(=O)/C=C(O)/C=C/c2ccc(-n3cccn3)c(OC)c2)ccc1-n1cccn1 | > 100 µM | > 100 µM | > 100 µM | > 100 µM | > 100 µM | > 100 µM | > 100 µM |  |
| COc1cc(/C=C/C(=O)/C=C(O)/C=C/c2ccc(-n3cnc4ccccc43)c(OC)c2)ccc1-n1cnc2ccccc21 | > 100 µM | > 100 µM | > 100 µM | > 100 µM | > 100 µM | > 100 µM | > 100 µM |  |
| COc1cc(/C=C/C(=O)/C=C(O)/C=C/c2ccc(I)c(OC)c2)ccc1I | > 100 µM | > 100 µM | > 100 µM | > 100 µM | > 100 µM | > 100 µM | > 100 µM | > 100 µM |
| COc1cc(/C=C/C(=O)/C=C(O)/C=C/c2ccc(Br)c(OC)c2)ccc1Br | > 100 µM | 55.9 µM | > 100 µM | > 100 µM | > 100 µM | > 100 µM | > 100 µM | 84.8 µM |
| COc1cc(/C=C/C(=O)/C=C(O)/C=C/c2ccc(N)c(OC)c2)ccc1N | > 100 µM | 15.8 µM | > 100 µM | > 100 µM | > 100 µM | > 100 µM | > 100 µM | 24.5 µM |
| COc1cc(/C=C/C(=O)/C=C(O)/C=C/c2ccc(NC(C)=O)c(OC)c2)ccc1NC(C)=O | > 100 µM | 7.2 µM | 37.1 µM | > 100 µM | 55.5 µM | > 100 µM | 71.6 µM | 7.1 µM |
| CNc1ccc(/C=C/C(=O)/C=C(O)/C=C/c2ccc(NC)c(OC)c2)cc1OC | > 100 µM | > 100 µM | > 100 µM | > 100 µM | > 100 µM | > 100 µM | > 100 µM | > 100 µM |
| COc1cc(/C=C/C(=O)/C=C(O)/C=C/c2ccc(C(N)=O)c(OC)c2)ccc1C(N)=O | 49.2 µM | 9.4 µM | 23.8 µM | > 100 µM | 38.3 µM | > 100 µM | 43.6 µM | 7.7 µM |
| COc1cc(/C=C/C(=O)CC(=O)/C=C/c2ccc(O)c(OC)c2)ccc1O [CURCUMIN] |  | 13.8 µM | 27.4 µM | 42.6 µM | 37.7 µM | 56.9 µM | 31.6 µM | 13.8 µM |
